Experimental data published in US11376269B2, “Pharmaceutical compositions for the treatment of chemoresistant acute myeloid leukemia (AML)” (INSERM (INSTITUT NATIONAL DE LA SANTÉ ET DE LA RECHERCHE …, priority 2016, dated 2022).

Tests used:
AML blasts = test: Flow cytometry of peripheral blood of 45 AML patients at D35 post-chemotherapy versus diagnosis; type: in vivo, human; conditions: day 35 post-AraC versus diagnosis
Procedure: (§1) FIG. 2. Validation of the increase in CD39 after cytarabine (AraC) in 9 patient-derived xenografts, 45 AML patients and 2 cell line-derived xenografts. (A) The total number of human AML cells expressing CD45, CD33 and CD44 in 9 patient-derived xenograft (PDX) was analyzed and quantified using flow cytometry in AraC-treated xenografted mice compared to PBS-treated xenografted mice in bone marrow and spleen. (B) Flow cytometric analysis of the percent of CD34^+CD38^− immature cell population was performed in human viable residual CD45^+CD33^+ AML cells from AraC-treated xenografted mice compared to PBS-treated xenografted mice in bone marrow. (C) The percent of CD39^+ cells in the bulk population and CD34^+CD38^− immature cell population of human viable residual CD45^+CD33^+ AML cells was assessed in AraC-treated xenografted mice compared to PBS-treated xenografted mice in bone marrow by flow cytometry. […]
(§2) Validation of the increase in CD39 expression in 9 patient-derived xenograft (PDX) models treated with cytarabine and in 45 AML patients at D35 compared to diagnosis. […] Then, we analyzed CD39 expression in two AML cell line-derived xenografts, which confirmed our previous results in patients and PDXs.

MOLM14 cells = test: Cell viability of MOLM14 cells, AnnexinV/7AAD-based flow cytometry assay; design: species or system human
Procedure: (§3) FIG. 3. In vitro study of the CD39 protein expression in MOLM14 AML cells after cytarabine (AraC) treatment in normoxia (21%) and hypoxia (1%). (A) Western analysis of the expression of HIF-1alpha, VDAC, CD39, P2Y13, pATF2 and HSP90 (as loading control) in MOLM14 cells after normoxia (21% O2) or hypoxia (1% O2) for 24 h, 48 h or 72 h. Each lane contained 30 μg of protein. (B-C-D) MOLM14 cells were treated with AraC (2 μM, IC50 in normoxia) for 48 h either in normoxia (21% O2) or hypoxia (1% O2). Flow cytometric analyses were perform to assess cell viability (B), CD39^+ expression (C-D). The results are representative of at least three independent experiments. The ATPase activity of CD39 in MOLM14 cells after Ara-C treatment was assessed and the concentration of non-hydrolyzed extracellular ATP was determined using the ATPlite assay (PerkinElmer) (E).
(§4) FIG. 4. In vitro potentiatingeffect of ARL67156 (CD39 inhibitor) with cytarabine (AraC) in MOLM14 cell line. (A-B) MOLM14 cells were either treated or not with 2 μM Ara-C, 100 μmol/L ARL or 250 μmol/L of another CD39 inhibitor, POM-1, for 48 h. Cell viability was assessed using AnnexinV/7AAD-based flow cytometry assay. (C) U937 AML cell line was either treated or not with 0.5 μM Ara-C or 100 μmol/L ARL. The percent of viable cells was analyzed using AnnexinV/7AAD-based flow cytometry assay.
(§5) In vitro potentiating effect of CD39 inhibitor with cytarabine in MOLM14 cell line. In order to explore the effect of CD39 onto the chemoresistance to AraC in AML cell lines in vitro, we first tested the consequence of CD39 inhibition using an ecto-ATPase inhibitor ARL67156. […] High ADP and/or P2YR13 activation might be involved into this compensatory and protective mechanism.

CD39 [1] = test: ATPase activity of CD39 in MOLM14 cells, non-hydrolyzed extracellular ATP by ATPlite assay; type: cell-based, human; conditions: MOLM14 after AraC, normoxic and hypoxic conditions
Procedure: as §3, with “(B-C-D) MOLM14 cells were treated with AraC (2 μM, IC50 in normoxia) for 48 h either in normoxia (21% O2) or hypoxia (1% O2).” left out, “The results are representative of at least three independent experiments.” left out
(§6) Then, we have established an AML cell line model to further study this mechanism. Using MOLM14 AML cell lines and hypoxic condition (1% versus 21% O2), we have analyzed the CD39 expression and ATP-hydrolyzing activity (FIG. 3).

CD39 [2] = test: CD39 expression in MOLM14 cells after AraC in normoxia and hypoxia, flow cytometry; type: cell-based, human; conditions: MOLM14, AraC 2 μM, 48 h, normoxic and hypoxic conditions
Procedure: as §3, with “(B-C-D) MOLM14 cells were treated with AraC (2 μM, IC50 in normoxia) for 48 h either in normoxia (21% O2) or hypoxia (1% O2).” left out, “The results are representative of at least three independent experiments.” left out
as §6

[3] = system: primary AML cells from patients; test: NSG mice xenografted with primary AML cells from patients (PDX), flow cytometry of residual cells; type: in vivo
Procedure: FIG. 2. Validation of the increase in CD39 after cytarabine (AraC) in 9 patient-derived xenografts, 45 AML patients and 2 cell line-derived xenografts. (A) The total number of human AML cells expressing CD45, CD33 and CD44 in 9 patient-derived xenograft (PDX) was analyzed and quantified using flow cytometry in AraC-treated xenografted mice compared to PBS-treated xenografted mice in bone marrow and spleen. (B) Flow cytometric analysis of the percent of CD34^+CD38^− immature cell population was performed in human viable residual CD45^+CD33^+ AML cells from AraC-treated xenografted mice compared to PBS-treated xenografted mice in bone marrow. (C) The percent of CD39^+ cells in the bulk population and CD34^+CD38^− immature cell population of human viable residual CD45^+CD33^+ AML cells was assessed in AraC-treated xenografted mice compared to PBS-treated xenografted mice in bone marrow by flow cytometry. (D-E-F) Similarly, flow cytometric analyses of 45 AML patients in peripheral blood at D35 (post-chemotherapy) and diagnosis to assess the percentage of blasts (D), of CD34^+CD38^− immature cells (E), and of CD39^+ residual cells in both total blasts (bulk) and CD34^+CD38^− population (F). (G-H) Flow cytometry analysis of 1 resistant cell line (MOLM14) and 1 sensitive cell line (U937)-derived xenograft (CLDX) to assess the total cell tumor burden of human viable AML cells in AraC- and PBS-treated CLDX (G), the percent of CD39^+ cells (H).
Until recently, mouse models of AML have been extensively used to characterize the nature and origin of LSCs (in part by our group: Sanchez et al. 2009. Sarry et al. 2011), but less frequently used to study their chemoresistance and miminum residual disease in vivo, an approach that is crucial to improve therapeutic outcome of AML patients. Thus, we tested and established an appropriate dose and regimen for use of AraC as baseline cytotoxic in our NSG mice xenografted with primary AML cells from patients seen at diagnosis or relapse of disease. We have access to a large resource of primary samples through our Biobank of the Hematology Clinical Department of the Oncopole Hospital in Toulouse (HIMIP, INSERM-U1037, ˜150 patients newly diagnosed/year) and in collaboration with Drs Gwen Danet-Desnoyers and Martin Carroll (University of Pennsylvania, Pa., USA). Then, we analyzed human AML cells surviving after AraC treatment over time. […] CANCER DISCOVERY. 2017).
Based on this model and the current hypothesis that AraC-resistant cells are rare, replicatively dormant and well adapted to hypoxic conditions (Ishikawa et al. 2007; Raaijmakers, 2011; Wilson and Hay, 2011), we have further analyzed all of these characteristics in AraC-treated patient-xenografted mice. We have first confirmed that CD34^+CD38^− cell population is increased post-AraC chemotherapy in residual AML cells. […] Finally, we have identified a signature of 15 genes (amongst of 350 genes, including CD39/ENTPD1 and P2Y13), that are the most differentially expressed in all of the three AML patient-derived xenografts after AraC treatment as compared to control samples using our in vivo PDX models coupled to a gene expression analysis (FIG. 1a).
as §2, with “diagnosis. We first examined the effect of AraC on CD39 expression in residual viable AML cells from our NSG model xenografted with primary AML cells from 9 patients (FIG. 2a).” for “diagnosis.”

U937 = U937 (sensitive) cell line-derived xenograft (CLDX); type: in vivo, mice
Procedure: as §1, §2

U937 AML cell line = test: Cell viability of U937 AML cell line, AnnexinV/7AAD-based flow cytometry assay; design: species or system human; conditions: U937, 0.5 μM Ara-C, 100 μmol/L ARL
Procedure: as §4, §5

[4] = AraC-treated patient-xenografted mice

Row | Compound | CD34+CD38− population and CD39 cells in residual bulk and immature populations (AML blasts) | IC50 (MOLM14 cells; Homo sapiens, MOLM-14, MOLM14 cells, normoxia (21% O2)) | remaining ATP (ATP-hydrolyzing activity of CD39) (CD39 [1]) | percent and expression of CD39 in residual viable cells (CD39 [2]) | total cell tumor burden in bone marrow and spleen ([3]; 9 PDX, AraC-treated versus PBS-treated mice) | percent of CD39 cells in bulk and immature CD34+CD38− population ([3]; 9 PDX, AraC-treated versus control mice) | CD34+CD38− population in residual AML cells ([3]; 9 PDX, post-AraC, bone marrow) | killing of cycling and quiescent cells and LSCs in vivo [3, 4] | type of cell death induced in vivo [3, 4] | peripheral engraftment and total cell tumor burden ([3]; all patients tested, PDX in NSG mice) | duration of response ([3]; variable from patient to patient, PDX in NSG mice) | total cell tumor burden in bone marrow and spleen (U937) | CD39 expression (U937; post-AraC versus vehicle) | induction of cell death alone (MOLM14 cells; MOLM14, 100 μmol/L ARL, 48 h, in absence of AraC) | potentiating effect with AraC on cell death (MOLM14 cells; MOLM14, with 2 μM Ara-C, 100 μmol/L ARL or 250 μmol/L POM-1, 48 h) | potentiation of the effect of AraC in inducing cell death (U937 AML cell line)
1 | Nc1ccn([C@@H]2O[C@H](CO)[C@@H](O)[C@@H]2O)c(=O)n1 [AraC, cytarabine] | increase | 2000 nM | significant decrease | increased the percent and expression of CD39 | significant cytoreduction | increase in percent of CD39 cells | increase | equally kills both cycling and quiescent cells as well as LSCs in vivo | ROS-/MMP-dependent apoptotic cell death | significant cytoreduction | 2-7 weeks | significant cytoreduction | increases |  |  | 
2 | CCN(CC)c1ncnc2c1ncn2[C@@H]1O[C@H](COP(=O)(O)OP(=O)(O)C(Br)(Br)P(=O)(O)O)[C@@H](O)[C@H]1O [ARL67156] |  |  |  |  |  |  |  |  |  |  |  |  |  | did not induce cell death alone | potentiatingeffect | did not potentiate the effect of AraC in inducing cell death
